# Experiments:
# [1] = system: experimental autoimmune encephalomyelitis (EAE) mice model; experiment: Nervous function score in EAE mice model; type: in vivo, C57BL/6J mice; settings: peak of attack, positive control drug, dose not given
# Description: (§1) Preparation of mice model and administration: experimental autoimmune encephalomyelitis (EAE) mice model is an important tool for studying various human nervous system demyelinating diseases. In the present experiment, the preparation of EAE mice model was performed by immunizing female C57BL/6J mice with myelin sheath oligodendroglial cell surface glycoprotein MOG35-55. That is, the mice were subcutaneously injected at dorsal part of spinal column with 0.2 mL of MOG35-55 antigen elixir, and 0.2 ml of bordetella pertussis solution was intraperitoneally injected at the time of immunization injection and 48 h thereafter, respectively. The composition of morroniside and loganin was intragastrically administered after the last injection of bordetella pertussis solution, for consecutive 3 weeks.
# Nervous function test method: the ethological changes of mice were observed by two experimenters every day using blind method. Scoring standard: 0 score, absence of symptom; 1 score, decrease of tail tension, evident slight gait awkward; 2 score, disappearance of tail tension, moderate gait abnormal, deficient in maintaining gesture; 3 score, limb strength weak; 4 score, limb paralysis; 5 score, near death or died.
# [2] = Body weight drop in EAE mice model; type: in vivo, C57BL/6J mice; settings: peak of attack, positive control drug, dose not given
# Description: as §1
# Experimental method: the methods for modeling and administration were the same of Experiment 1. The body weight changes of mice were recorded every day.
# [3] = system: myelin sheath of spinal cord in EAE model mice; experiment: Myelinoclasis of spinal cord in EAE mice model (LFB staining); type: in vivo; settings: day 29, positive control drug, dose not given
# Description: as §1
# Experimental method: the mice were anesthetized with 10% chloral hydrate on the 29th day of experiment, fixed by perfusion of 4% paraformaldehyde, myeloid tissues were taken for making paraffin sections, section thickness 5 μm. Stained with LFB, observed under microscope, and scored according to the following standard: 0 score, absence of myelinoclasis; 1 score, one small range of myelinoclasis; 2 score, 2 or 3 small ranges of myelinoclasis; 3 score, 1 to 2 large ranges of myelinoclasis; 4 score, large ranges of myelinoclasis accumulatively existing in 20% or more of white matter regions.
# [4] = system: spinal cord tissues of EAE mice model; experiment: Inflammatory cell infiltration in spinal cord tissues of EAE mice model (HE staining); type: in vivo; settings: day 29, positive control drug, dose not given
# Description: as §1, with “The composition of morroniside and loganin was intragastrically administered after the last injection of bordetella pertussis solution, for consecutive 3 weeks.” left out
# Experimental method: the mice were anesthetized with 10% chloral hydrate on the 29th day of experiment, fixed by perfusion of 4% paraformaldehyde, spinal cord tissues were taken for making paraffin sections, section thickness 5 μm. Stained with HE, observed under microscope, and scored according to the following standard: 0 score, absence of cell infiltration; 1 score, spinal meninge cell infiltration; 2 score, 1 to 4 small ranges of cell infiltration around vessels; 3 score, 5 or more small ranges of cell infiltration around vessels, or one or more accumulatively substantial large range of cell infiltration; 4 score, a large number of cell infiltration ranges accumulatively existing in 20% or more of white matter regions.
# IL-1 = experiment: Serum IL-1 content in EAE mice model (ELISA); type: in vivo; settings: serum of EAE mice; positive control drug, dose not given
# Description: as §1
# (§2) Experimental method: mice were anesthetized with pentobarbital sodium, blood sample was taken from abdominal aorta, stood at room temperature for 2 h, centrifuged at 3000 rpm for 20 min, and supernatant was taken, stored at −80° C. for use. The operation was performed strictly according to the steps of specification of ELISA kit. Optical density was measured with ELIASA at 450 nm. The corresponding contents of IL-1 and IL-6 were calculated with the measured OD values on standard curve.
# IL-6 = experiment: Serum IL-6 content in EAE mice model (ELISA); type: in vivo; settings: serum of EAE mice; positive control drug, dose not given
# Description: as §1, §2
# [5] = system: CNPase (marker protein of mature oligodendroglial cells); experiment: CNPase content in spinal cord of EAE model mice (Western blot); type: in vivo; settings: positive control drug, dose not given
# Description: as §1
# Experimental method: the mice were anesthetized and sacrificed, fresh spinal cord was taken on ice, total protein was extracted by clearage on ice, to prepare Western blot sample, added with CNPase primary antibody and incubated, added with corresponding secondary antibody, ECL colorated, Kodak film exposed. Pictures were analyzed with Image J software and standardized with actin.
# [6] = system: experimental autoimmune encephalomyelitis (EAE) rats model; experiment: Nervous function damage in EAE rats model; type: in vivo, Lewis rats; settings: peak of attack, positive control drug, dose not given
# Description: (§3) Preparation of rat model and administration: in this experiment, the preparation of EAE rat model was performed by multipoint immunizing female Lewis rats subcutaneously at tail root with a homogenate of spinal cord and cerebral gray matter of Guinea pig as well as complete Freund's adjuvant after emulsification. They were intragastrically administered with a composition of morroniside and loganin for 3 weeks.
# Nervous function test method: the ethological changes of rats were observed by two experimenters using blind method every day. Scoring standard: 0 score, absence of symptom; 1 score, decrease of tail tension, visible evident slight gait awkward; 2 score, double hind limbs weak, walk difficult; 3 score, double hind limbs paralysis; 4 score, double hind limbs paralysis and fore limbs weak; 5 score, four limbs paralysis; 6 score, near death or died.
# [7] = Body weight drop in EAE rat model; type: in vivo, Lewis rats; settings: EAE rats, peak of attack; positive control drug, dose not given
# Description: as §3
# Experimental method: the methods for modeling and administration were the same of Experiment 7. The body weight changes of rats were recorded every day.
smiles,measurement,setting,value
CC(=O)OCC(=O)[C@@]1(O)CC[C@H]2[C@@H]3CCC4=CC(=O)C=C[C@]4(C)[C@H]3C(=O)C[C@@]21C [prednisone acetate],Nervous function damage score,[1],1.36 ± 0.62 score
same,Bodyweight,[2],20.52 ± 1.19 g
same,Myelinoclasis (LFB staining score),[3],0.81 ± 0.21 score
same,Inflammatory cell infiltration (HE staining score),[4],1.16 ± 0.12 score
same,1L-1 content,IL-1,0.114 ± 0.001 pg/mL
same,IL-6 content,IL-6,0.124 ± 0.002 pg/mL
same,Oligodendroglial cells (CNPase/actin integration grey level),[5],1.18 ± 0.02
same,Nervous function damage score,[6],1.16 ± 1.21 score
same,Bodyweight,[7],198.5 ± 7.1 g
